Experimental data from article PMC12693167, “Design, Synthesis and Anticancer Activity of 6-Substituted-1-(3,4,5-trimethoxyphenyl)-1H-indole Against Tubulin Polymerisation” (Molecules, 2025).

What was measured:
[1] = test system: B16F10 melanoma tumors in BALB/c mice; assay: In vivo antitumor efficacy, subcutaneous B16-F10 melanoma model; design: species or system mouse; conditions: paclitaxel 10 mg/kg i.p. once daily, 14 days, from tumor weight
Procedure: The in vivo antitumor activity of compound 3g was evaluated using a mouse melanoma tumor model in BALB/c mice. Tumors were established by subcutaneous inoculation of B16F10 cells, and treatment was initiated when tumors reached a measurable size. Mice were administered vehicle control, paclitaxel (PTX, 10 mg/kg), or compound 3g (20 and 50 mg/kg) via intraperitoneal injection once daily for 14 consecutive days.
All animal procedures were approved by the Animal Ethics Committee of the Naval Medical University (permit number: EC11-055). Male BALB/c mice (6–8 weeks old, average initial body weight approximately 18–20 g) were purchased from Shanghai SLAC Laboratory Animal Co., Ltd. The inhibitory effect of compound 3g was evaluated using a subcutaneous B16-F10 melanoma xenograft model. Log-phase B16F10 cells were suspended in PBS and subcutaneously injected into mice (200 μL containing 8 × 10^5 cells per mouse) to establish tumors. Mice were randomly divided into control and treatment groups (n = 8). Compound 3g and paclitaxel were dissolved in a vehicle consisting of DMSO:PEG:Tween-80:saline (v/v/v/v, 5:35:10:50) to the desired concentrations. Treatments (paclitaxel, 10 mg/kg; compound 3g, 20 and 50 mg/kg, doses calculated on a body-weight basis) and vehicle were administered once daily via intraperitoneal injection for 14 consecutive days. Body weights were monitored throughout the study to assess acute toxicity. Tumor volumes were measured using calipers and calculated with the formula: a × b^2 × 0.5, where a and b represent the larger and smaller tumor diameters, respectively. On day 14, mice were sacrificed and tumors were excised and weighed. […] Major organs (liver and kidneys) were collected, fixed in 4% paraformaldehyde, processed into paraffin sections, stained with hematoxylin and eosin (H&E), and examined microscopically.
Murine melanoma B16-F10 xenograft tumors were established in mice, which were then administered vehicle, PTX (10 mg/kg per day), compound 3g (20 mg/kg per day), and compound 3g (50 mg/kg per day) for 14 days. […]

[2] = target: T1, Porcine brain tubulin protein (Sus scrofa, UniProt P02554); assay: In vitro tubulin polymerization assay; assay type: biochemical; conditions: 10 μM
T1 construct: Porcine brain tubulin protein was dissolved in EM buffer; from tissue; host or cells: porcine brain
T1 sequence (P02554 whole entry): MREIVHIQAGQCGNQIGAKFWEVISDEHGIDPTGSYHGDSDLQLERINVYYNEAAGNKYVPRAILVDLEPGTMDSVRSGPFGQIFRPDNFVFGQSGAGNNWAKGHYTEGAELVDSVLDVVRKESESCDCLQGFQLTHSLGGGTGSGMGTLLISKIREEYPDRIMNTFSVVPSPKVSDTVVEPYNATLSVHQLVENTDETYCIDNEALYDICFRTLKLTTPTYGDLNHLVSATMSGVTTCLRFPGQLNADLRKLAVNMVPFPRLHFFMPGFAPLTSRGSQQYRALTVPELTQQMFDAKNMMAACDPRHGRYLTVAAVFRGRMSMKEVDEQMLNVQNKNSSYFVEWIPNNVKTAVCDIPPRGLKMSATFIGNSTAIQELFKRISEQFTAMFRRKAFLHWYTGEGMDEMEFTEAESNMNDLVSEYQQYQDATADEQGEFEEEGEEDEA
T1 sequence (P02550 whole entry partner): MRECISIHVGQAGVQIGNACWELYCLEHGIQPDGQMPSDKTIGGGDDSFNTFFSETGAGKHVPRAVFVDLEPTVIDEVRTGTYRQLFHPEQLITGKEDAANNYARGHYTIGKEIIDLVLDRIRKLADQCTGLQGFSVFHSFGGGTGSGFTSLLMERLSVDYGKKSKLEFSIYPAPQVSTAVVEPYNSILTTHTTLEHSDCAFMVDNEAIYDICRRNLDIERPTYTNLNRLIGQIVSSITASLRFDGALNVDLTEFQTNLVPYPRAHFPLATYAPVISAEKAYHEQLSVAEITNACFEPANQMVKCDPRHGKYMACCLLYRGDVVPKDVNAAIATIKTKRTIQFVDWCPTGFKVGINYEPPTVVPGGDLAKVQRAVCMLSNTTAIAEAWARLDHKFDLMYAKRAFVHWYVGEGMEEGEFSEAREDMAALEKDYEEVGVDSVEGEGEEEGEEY
Procedure: The ability of compound 3g to disrupt microtubule dynamics was assessed using an in vitro tubulin polymerization assay.
Porcine brain tubulin protein was dissolved in EM buffer containing 5% glycerol (80 mM PIPES, 2 mM GTP, 2 mM MgCl2, and 0.5 mM EGTA, pH 6.9). Compounds were diluted in EM buffer to final concentrations of 50, 25, 10, 5, and 2.5 μM and added to a pre-warmed 384-well plate, followed by pre-incubation at 37 °C. Subsequently, 14 μL of the tubulin-GTP mixture was added to each well containing the test compounds. Tubulin polymerization was monitored by measuring absorbance at 340 nm every minute for 60 min. […] Each assay was performed in triplicate.
Absorbance at 340 nm was determined every 1 min.

Q: Which results are given for `CC(=O)O[C@H]1C(=O)[C@@]2(C)[C@H]([C@H](OC(=O)c3ccccc3)[C@]3(O)C[C@H](OC(=O)[C@H](O)[C@@H](NC(=O)c4ccccc4)c4ccccc4)C(C)=C1C3(C)C)[C@]1(OC(C)=O)CO[C@@H]1C[C@@H]2O` [paclitaxel, reference compound]?
A: tumor growth inhibition (TGI) [1]: 59.84%; effect on tubulin polymerization (positive controls) [2]: stabilizing
